How the values were obtained:
APTK-s.c. tumors [1] = assay: subcutaneous APTK tumors, UA-supplemented diet; assay type: in vivo, C57BL/6 mice
Protocol: Tumors were minced and digested with Tumor & Tissue Dissociation Reagent (BD Horizon) for 30 min. The remaining organ pieces were filtered through a 70 μm cell strainer. Cells were then washed with PBS 1% BSA and 2 mM EDTA. Immune cells were enriched on a 30%/40%/75% Percoll gradient after a 1700 rpm 17 min centrifugation. Then, tumor immune filtrates or activated T cells were stained with Fixable Viability Dye-eF780 (65-0865-14; eBioscience), αCD45-FITC (30-F11; 11-0451-85; eBioscience), αCD11b-BV650 (M1/70; 56340; BD) α-CD11C-BV785 (HL3; 563735; BD), αLy6G-BV605 (53-6.7; 563005; BD), αLy6C-AF700 (HK1.4; 128024; Biolegend), αF4/80-PE (BM8; 12-4801-82, eBioscience), αPD-L1-PECy7 (MIH5; 25-5982-80, eBioscience); or with Fixable Viability Dye-eF780 (ebioscience), αCD45-BV786 (30-F11; 564225; BD), αCD4-BUV496 (GK1.5; 564667; BD), αCD8-BV605 (100744; Biolegend), αPD1-APC (J43; 17-9985-82; eBioscience), αTIM-3-PECy7 (RMT3-23; 119715; Biolegend), αCTLA4-PE (UC10-4B9; 106305; Biolegend) and αLag3-BV421 (C9B7W; 125221, Biolegend); or with Fixable Viability Dye-eF780 (eBioscience), αCD4-FITC (H129.19; 553650; BD), αCD8-APC (53-6.7; 17-0081-83; eBioscience), αCD44-AF400 (IM7; 103026; Biolegend), αCD62L-BV785 (MEL-14; 104440; Biolegend), αSca-1-PerCP-Cy5.5 (D7; 45-5981-82; eBioscience), αCD95-PE (Jo2; 554258; BD); or with Fixable Viability Dye-eF780 (eBioscience), αCD8-BV650 (53-6.7; 563234; BD), αCD4-BUV496 (GK1.5; 564667; BD), αCD127-APC (A7R34; 17-1271-82; eBioscience), αCD95-FITC (SA367H8; 152605; Biolegend), αCD44-AF400 (IM7; 103026; Biolegend), αCD62L-BV785 (MEL-14; 104440; Biolegend), αSca-1-PerCP-Cy5.5 (D7; 45-5981-82; eBioscience) followed by intracellular staining of αTCF1-PE (S33-966; 564217; BD), or PGC-1α (sc-518025; D-5; santa cruz), or αCyclinD1 (MA5-28534, DCS-6; Invitrogen) with transcription factor buffer set kit (BD Biosciences). To study cytokine expression, tumor immune infiltrates were stimulated ex vivo with 20 ng/ml PMA and 1 μg/ml Ionomycin (Sigma) for 3 h in T cell activation medium with Brefeldin A (Biolegend).

T cells = assay: qPCR and RNA sequencing of stimulated T cells; assay type: cell-based, mice
Protocol: To explore the downstream events linking mitophagy to TSCM formation, the inventors performed RNA sequencing to globally assess differential gene expression in T cells exposed for 48 hours to either DMSO or UA in vitro. […] Indeed, when the inventors applied ICG001 to pharmacologically block TCF-1, UA-induced TSCM formation in vitro was abrogated (FIG. 5D-E).
In vitro activated T cells following the indicated treatments were collected followed by RNA isolation using the RNeasy kit (Qiagen). RNA quality and concentration were determined by Nanodrop spectrophotometer. Complementary DNA was generated using SuperScript II reverse transcriptase (ThermoFisher). A total reaction volume of 13 μl RNA was incubated with oligoDT and DNTP Mix (1 μl each) for 5 min at 65° C. The samples were allowed to cool down for 5 min on ice, and to each 4 μl of 5× First strand buffer, 1 μl DTT, 1 μl RNAseOUT™ and 1 μl Superscript II reverse transcriptase were added. Samples were incubated for 1 h at 42° C. Synthesized cDNA was 1:5 diluted in nuclease free water before being processed into gene expression analysis with the 96 wells StepOne real time PCR Machine (Applied biosystems) using 2× FastStart Universal SYBR Green Master Mix (Roche). CT values were normalized to the gene indicated in the respective figures. The following primers were used: […]
For RNA isolation of in vitro stimulated T cells, RNeasy mini kit (Qiagen) was used. 200 ng of total RNA was used to prepare the library for RNA sequencing. Coexpression patterns of genes associated with effector and memory cell fate, immune checkpoints, effector molecules, and adhesion/homing were chosen based on the literature as depicted in the main text. Data underwent z-score normalization for display as described previously (Xiong et al., 2020). Upstream regulator analysis was performed using Ingenuity pathway analysis software, using a cut-off log 2fold change of 1 and a p value of […].

CEA-CAR T cells = assay: UA applied to previously frozen CEA-CAR T cells; assay type: cell-based, human; settings: previously frozen CEA-specific CAR-T cells, UA for three days
APTK-s.c. tumors [2] = assay: subcutaneous APTK tumors, UA-supplemented diet; assay type: in vivo, C57BL/6 mice; remark: listed apart in the source
C. elegans = settings: cited from earlier work
[3] = tested on: Th1/Th17 cell infiltration; settings: model of EAE; cited from earlier work
APTK organoids = assay: APTK tumor organoids incubated with UA, flow cytometry
[4] = restimulated with PMA/ionomycin ex vivo
[5] = increasing concentrations of UA (25-50 μM)

With `O=c1oc2cc(O)ccc2c2ccc(O)cc12` [UA, Urolithin A] the “mitochondrial content in TIL of APTK tumors” value (APTK-s.c. tumors [1]; CD8+ TIL, UA vs control diet) was “increased”, the “CD4+ TSCM in APTK-induced tumors” value (APTK-s.c. tumors [1]; UA-containing vs control diet) was “no change” and the “TCF1 expression in tumor infiltrating CD8+ T cells” value (APTK-s.c. tumors [1]; UA-containing vs control diet) was “increased expression”. The “dendritic cells (DCS), TAMs, or MDSC subsets in TME” value (APTK-s.c. tumors [1]; UA-containing vs control diet) was “no change”, the “CD8+CD44loCD62LhiSca1hi T cells in APTK-induced tumors” value (APTK-s.c. tumors [1]; UA-containing vs control diet, CD8+ TIL) was “marked increase” and the “exhaustion marker CTLA-4 in CD8+ T cells” value (APTK-s.c. tumors [1]; UA-fed mice, CD8+ TIL) was “reduction”. For the same compound, the “exhaustion marker PD-1 in CD8+ T cells” value (APTK-s.c. tumors [1]; UA-fed mice, CD8+ TIL) was “reduction”, the “exhaustion marker Tim3 in CD8+ T cells” value (APTK-s.c. tumors [1]; UA-fed mice, CD8+ TIL) was “reduction” and the “CD8+ T cell infiltration in tumors” value (APTK-s.c. tumors [1]; UA-supplemented diet vs control food) was “enhanced”. The “induction of IFNg in tumor infiltrating CD8+ T cells” value (APTK-s.c. tumors [1]; [4]) was “stronger induction”, the “induction of TNFa in tumor infiltrating CD8+ T cells” value (APTK-s.c. tumors [1]; [4]) was “stronger induction” and the “transcription of several Wnt target genes” value (T cells) was “increased transcription”. The “expression of Cd27, Ccr7 and adhesion genes” value (T cells; RNA sequencing, 48 h) was “enhancing expression”, the “expression of effector fate associated genes Prdm1 and Id2” value (T cells; RNA sequencing, 48 h) was “reduced expression” and the “expression of genes that code for immune checkpoints and effector molecules” value (T cells; RNA sequencing, 48 h) was “reduced the expression”. The “genes involved in memory formation such as Tcf7, Bach2 and Bcl6” value (T cells; RNA sequencing, 48 h) was “special enrichment”, the Atg5 gene expression (T cells; qPCR, 24 h, UA 50 μM) was “significant upregulation” and the Atg7 gene expression (T cells; qPCR, 24 h, UA 50 μM) was “significant upregulation”. The Lamp2 gene expression (T cells; qPCR, 24 h, UA 50 μM) was “significant upregulation”, the Pink1 gene expression (T cells; qPCR, 24 h, UA 50 μM) was “significant upregulation” and the p62 gene expression (T cells; qPCR, 24 h, UA 50 μM) was “significant upregulation”. For the same compound, the “CAR TSCM formation” value (CEA-CAR T cells) was “strongly enhanced”, the “tumor growth, UA diet combined with PD-1 blockade” value (APTK-s.c. tumors [2]; UA-containing food + a-PD-1) was “sensitized APTK tumors to PD-1 blockade” and the tumor growth (APTK-s.c. tumors [2]; UA-supplemented diet from day 11 after tumor injection vs control food) was “significantly reduced”. The lifespan (C. elegans) was “prolonged lifespan”, the mitochondrial content (C. elegans) was “higher mitochondrial content” and the Th1/Th17 cell infiltration [3] was “blocking”. For the same compound, the “MHC-I (antigen presentation)” value (APTK organoids; UA 25-50 μM, 48 h) was “marked upregulation”, the MitoTracker staining (APTK organoids; [5]) was “concomitant loss” and the “formation of lysosomes (lysotracker)” value (APTK organoids; [5]) was “dose-dependent formation”.

— patent US20260069693A1, “UROLITHINS AND T-CELL MEDIATED IMMUNE RESPONSE” (priority 2022, published 2026)
